In paper PMC6404510 (Neural Regeneration Research, 2019):

How the values were obtained:
NeuN+ neurons = assay: Fluorescence tracing of intranasal Alex546-Ins in rat brain sections; format: in vivo; conditions: rat brain sections after intranasal Alex546-Ins
[1] = monkeys, intranasal administration; ref Thorne et al., 2008; cited from earlier work

Alexa Fluor 546-labeled insulin [Alex546-Ins]
Cell type binding Alex546-Ins (NeuN double-immunostaining) (NeuN+ neurons): on the membrane of NeuN^+ neurons

B1: I^125-interferon-β1b (protein, UniProt P01574 22-187, looked up, variant C17S)
Interferon beta: MSYNLLGFLQRSSNFQSQKLLWQLNGRLEYCLKDRMNFDIPEEIKQLQQFQKEDAALTIYEMLQNIFAIFRQDSSSTGWNETIVENLLANVYHQINHLKTVLEEKLEKEDFTRGKLMSSLHLKRYYGRILHYLKAKEYSHCAWTIVRVEILRNFYFINRLTGYLRN
modifications: I-125 radiolabel
Time of earliest detection in CSF [1]: ≤ 30 min
